In patent publication US20260210976A1, “METHOD TO DETECT AND TREAT PERIPHERAL NEUROPATHY” (Ohio State Innovation Foundation, priority 2022, published 2026):

Assays:
[1] = test system: scWAT; assay: Hematoxylin staining of scWAT sections; format: in vivo, mouse
Description: Intact inguinal scWAT (ing-scWAT), axillary scWAT (ax-scWAT), and perigonadal WAT (pgWAT) depots were excised from BL6 and HET3 mice, fixed in 10% buffered formalin overnight at room temperature and embedded in paraffin. Paraffin embedded tissues were sectioned 7 μm thick. Tissue sections were deparaffinized with HistoChoice Clearing Agent and hydrated in decreasing concentrations of EtOH (100%, 95% 70%, 30%, 0%). Tissues were stained in Mayer's Hematoxylin Solution (Sigma-Aldrich Cat #MHS16) or Mayer's Hemalum Solution (Sigma-Aldrich Cat #109249) and a drop of mounting fluid was applied, and tissues were cover slipped, sealed, and imaged. Three representative images were captured per tissue per animal and cell perimeter and area was measured in Fiji (Schindelin et al., 2012).

[2] = test system: scWAT collagen; assay: Picrosirius red staining and collagen birefringence quantification of scWAT; format: in vivo, mouse
Description: Intact scWAT and pgWAT depots were excised from BL6 and HET3 mice, fixed in 10% buffered formalin overnight at room temperature and embedded in paraffin. Paraffin embedded tissues were sectioned 7 μm thick. Tissue sections were deparaffinized with HistoChoice Clearing Agent (Sigma-Aldrich Cat #H2779) and hydrated in decreasing concentrations of EtOH (100%, 95% 70%, 30%, 0%). Tissues were stained in picrosirius red stain (Electron Microscopy Sciences Cat #26357) for 1 hr, washed in two changes of acidified water (5 seconds each), dehydrated in three changes of 100% EtOH, cleared in histo-grade Xylenes for 5 minutes and cover slipped using Permount mounting media (Electron Microscopy Sciences Cat #17986-01). Five representative images per tissue were captured using both brightfield and circularly polarized light to gauge collagen distribution. Total collagen was measured by first quantifying the area comprised by picrosirius red staining in the field of view using brightfield microscopy. This was then divided by the area comprised exclusively of polarized collagen fibers. […] To differentiate the relative contribution of collagen fiber thicknesses, methods were adapted from (Rich & Whittaker, 2005) for use in Fiji (Schindelin et al., 2012). Hue values used for this analysis were as follows: green (52-128), yellow (39-51), orange (10-38), and red (0-9, 230-255). Saturation was not accounted for, and brightness was thresholded at 35-255 to prevent noise from being included in pixel counts. See FIG. 11 for a schematic of this method.

[3] = Harrison et al., 2009; cited from earlier work
[4] = test system: diabetic NONcNZO10/LtJ mice; conditions: 14 ppm diet-fed (Reifsnyder, Doty, & Harrison, 2014); cited from earlier work
[5] = test system: PSD95 and PGP9.5 protein expression in scWAT; assay: Western blot of scWAT after daily intra-adipose CL316 243; format: in vivo; conditions: daily intra-adipose administration for 7 days

SMILES | crown-like structures, lipofuscin and immune cell infiltration in scWAT ([1]; early-intervention group (started ~30 weeks)) | crown-like structures, lipofuscin and immune cell infiltration in scWAT ([1]; late-intervention group (started ~72 weeks)) | total increase in collagen between treatment groups ([2]; early-intervention) | collagen deposition versus vehicle group ([2]; early-intervention group) | animals exhibiting severely fibrotic tissue ([2]; early-intervention, females) | animals exhibiting severely fibrotic tissue ([2]; early-intervention, males) | green collagen fibers (birefringence) ([2]; early-intervention, males) | orange collagen fibers (birefringence) ([2]; early-intervention, males) | thick collagen fibers (orange+red), share of thin:thick ratio ([2]; early-intervention, males) [%] | thin collagen fibers, share of thin:thick ratio ([2]; early-intervention, males) [%] | birefringence patterns ([2]; late-intervention) | total collagen ([2]; late-intervention, females) | total collagen ([2]; late-intervention, males, failed to meet statistical significance) | adipose tissue inflammation and fibrosis ([2]; overall statement) | scWAT fibrosis ([2]; treatment started early in life) | circulating rapamycin, males versus females [3] | pancreatic fibrosis [4] | PGP9.5 protein expression in scWAT [5] | PSD95 expression in scWAT [5]
CO[C@H]1C[C@@H]2CC[C@@H](C)[C@@](O)(O2)C(=O)C(=O)N2CCCC[C@H]2C(=O)O[C@H]([C@H](C)C[C@@H]2CC[C@@H](O)[C@H](OC)C2)CC(=O)[C@H](C)/C=C(\C)[C@@H](O)[C@@H](OC)C(=O)[C@H](C)C[C@H](C)/C=C/C=C/C=C/1C [rapamycin] | increased | not observed | not statistically significant | greater | 3 out of 11 | 3 out of 8 | decreased | increased | 75 | 25 | did not vary | no difference | possible increase | worsened | increased | equivalent | caused pancreatic fibrosis |  | 
C[C@H](Cc1ccc2c(c1)OC(C(=O)[O-])(C(=O)[O-])O2)NC[C@H](O)c1cccc(Cl)c1.[Na+].[Na+] [CL316 243] |  |  |  |  |  |  |  |  |  |  |  |  |  |  |  |  |  | upward trend | increased
